Test: xn = mol fraction of the nth substance listed
Details: 101 kPa

COCCOCCOCCOCCOC + ClC(Cl)Cl
298.15 K
Details | viscosity [mPa·s]
x1 = 0.0305 | 0.671
x1 = 0.06 | 0.81
x1 = 0.0813 | 0.921
x1 = 0.118 | 1.124
x1 = 0.1876 | 1.492
x1 = 0.2354 | 1.766
x1 = 0.2657 | 1.91
x1 = 0.2957 | 2.04
x1 = 0.35 | 2.276
x1 = 0.4029 | 2.413
x1 = 0.4429 | 2.521
x1 = 0.5093 | 2.676
x1 = 0.5445 | 2.745
x1 = 0.6146 | 2.883
x1 = 0.6452 | 2.925
x1 = 0.7142 | 3.035
x1 = 0.7593 | 3.083
x1 = 0.8142 | 3.141
x1 = 0.88 | 3.227
x1 = 0.9225 | 3.252

CC1=CCC(=C(C)C)CC1 + Clc1ccccc1
viscosity [mPa·s]
Details | x1 = 0.0668 | x1 = 0.1386 | x1 = 0.2162 | x1 = 0.3003 | x1 = 0.3917 | x1 = 0.4913 | x1 = 0.6004 | x1 = 0.7203 | x1 = 0.8528
303.15 K | 0.729 | 0.761 | 0.798 | 0.836 | 0.874 | 0.908 | 0.934 | 0.955 | 0.974
308.15 K | 0.692 | 0.722 | 0.756 | 0.791 | 0.826 | 0.858 | 0.881 | 0.897 | 0.913
313.15 K | 0.649 | 0.677 | 0.709 | 0.743 | 0.775 | 0.804 | 0.825 | 0.839 | 0.853

CC(F)(F)F + FC(F)C(F)(F)F
viscosity [mPa·s]
Details | x1 = 0.248 | x1 = 0.5 | x1 = 0.759
298.15 K | 0.1286 | 0.1205 | 0.117
313.15 K | 0.1036 | – | –

CC(F)(F)F + FCC(F)(F)F
viscosity [mPa·s]
Details | x2 = 0.247 | x2 = 0.5 | x2 = 0.743
298.15 K | 0.126 | 0.1447 | 0.1691
313.15 K | 0.105 | 0.1187 | 0.1358

CC1=CCC(=C(C)C)CC1 + Fc1ccccc1
viscosity [mPa·s]
Details | x1 = 0.062 | x1 = 0.1294 | x1 = 0.2031 | x1 = 0.2839 | x1 = 0.3729 | x1 = 0.4714 | x1 = 0.5811 | x1 = 0.704 | x1 = 0.8425
303.15 K | 0.563 | 0.61 | 0.661 | 0.715 | 0.771 | 0.824 | 0.87 | 0.912 | 0.951
308.15 K | 0.53 | 0.572 | 0.621 | 0.672 | 0.725 | 0.774 | 0.818 | 0.855 | 0.889
313.15 K | 0.498 | 0.536 | 0.582 | 0.631 | 0.681 | 0.727 | 0.767 | 0.8 | 0.831

— the CheMixHub viscosity set
